Consider 98 compounds from PubChem BioAssay AID493191 (Broad Institute, 2011).

In the assay the test system is MALME3 melanoma viability, CellTiter-Glo luminescence, 24 h. As to the kind of experiment: growth inhibition of MALME3 cells – cell-based, CellTiter-Glo, cherry-picked, orthogonal assay for MITF inhibitor project, dose response (AID 493191).

For the compound `COC1=C(c2ccccc2)C(=O)c2ccccc2C1=O`, the AC50 is 20.3 µM.

For `Cc1ccc2nc(C)cc(Nc3ccc([N+](=O)[O-])cc3)c2c1`, the AC50 was 31.5 µM.

In the case of `O=C(N/N=C\c1ccc([N+](=O)[O-])s1)c1cncc(Br)c1`, the AC50 was 20.2 µM.

`CC(=O)N1CCc2c(sc(NC(=O)c3ccc([N+](=O)[O-])o3)c2C#N)C1`: the half-maximal activity concentration (AC50) is 9.37 µM.

With `Cc1c(C(=O)Nc2ccc(S(=O)(=O)N(C)C3CCN(C)CC3)cc2)oc2c(Cl)cccc12`, the AC50 is 26.4 µM.

For the compound `CCCCCCCNC(=O)C1(CC2CC(c3ccc(Cl)cc3)=NO2)CCNCC1` (stereo not drawn), the concentration at half-maximal activity (AC50) was 15.2 µM.

Turning to `CCCCN1C=CC(=C2C(=O)c3ccccc3C2=O)C=C1`, the AC50 is 27.3 µM.

`COc1ccc2oc(C(=O)Nc3ccc(S(=O)(=O)N(C)C4CCN(C)CC4)cc3)c(C)c2c1`: the AC50 is 33.5 µM.

In the case of `O=C(NCC1CCCCC1)C1(CC2CC(c3cccc(Br)c3)=NO2)CCNCC1` (stereo not drawn), the AC50 was 24.4 µM.

Consider `CCN(CC)CCn1nc2c3c(cccc3c1=O)-c1ccccc1-2`, for which the concentration at half-maximal activity (AC50) was 28.4 µM.

For the compound `CCCCn1c(=N)n(CCOc2ccc(C)cc2)c2ccccc21`, the concentration at half-maximal activity (AC50) was 26.5 µM.

With `CCOc1cc(/C=N/N=C(N)N)ccc1OCc1ccc(Cl)cc1`, the half-maximal activity concentration (AC50) is 18.8 µM.

Turning to `CC(C)C(=O)N1CCN(c2ccc(NC(=O)c3ccc([N+](=O)[O-])o3)cc2Cl)CC1`, the concentration at half-maximal activity (AC50) was 19.2 µM.

Turning to `CC(C)Oc1ccc(C(CCN)C2CCCCC2)cc1` (stereo not drawn), the AC50 was 14.6 µM.

Take `CNC(=O)COC(=O)c1ccccc1C(=O)c1ccc(Cl)c([N+](=O)[O-])c1`: the concentration at half-maximal activity (AC50) was 23.8 µM.

For `O=C(NC1=C(Nc2ccc(Cl)cc2)C(=O)c2ccccc2C1=O)c1ccccc1`, the concentration at half-maximal activity (AC50) is 20.3 µM.

`CCOC(=O)CCc1ccc(NC(=O)/C=C/c2ccc([N+](=O)[O-])o2)cc1`: the AC50 is 13.9 µM.

Turning to `CC1CCN(CC(CS(=O)(=O)c2ccc([N+](=O)[O-])cc2)N2CCC(C)CC2)CC1` (stereo not drawn), the concentration at half-maximal activity (AC50) was 18.9 µM.

`Cc1ccc(-n2cc(CNCCCn3ccnc3C)c(-c3ccc(F)cc3)n2)cc1`: the concentration at half-maximal activity (AC50) is 15.8 µM.

Take `CC(C)(c1ccccc1)c1ccc(OCC(O)CNC2CCN(Cc3ccccc3)CC2)cc1` (stereo not drawn): the concentration at half-maximal activity (AC50) is 13.5 µM.

Turning to `O=[N+]([O-])c1cccc2c(N3CCCC3)ccnc12`, the half-maximal activity concentration (AC50) was 4.82 µM.

On to `O=C(Cn1ncc(Cl)c(Cl)c1=O)N1CCOCC1`, for which the concentration at half-maximal activity (AC50) is 20.6 µM.

Consider `Cc1ccc(NC(=O)CN(C)C(=O)Cn2ncc(Cl)c(Cl)c2=O)cc1`, for which the half-maximal activity concentration (AC50) is 8.81 µM.

Regarding `O=C(C#Cc1ccccc1)c1cccc([N+](=O)[O-])c1`, the concentration at half-maximal activity (AC50) is 10.8 µM.

Turning to `COCCN(CC(=O)NC1CCCCC1)C(=O)/C=C/C(=O)c1ccc(OC)cc1O`, the AC50 was 6.68 µM.

For `COc1ccccc1CNCC(O)Cn1c2ccccc2c2ccccc21` (stereo not drawn), the AC50 was 20 µM.

Consider `CCN(CC)S(=O)(=O)c1ccc(N2CCCC2)c(NC(=O)c2ccc([N+](=O)[O-])o2)c1`, for which the AC50 was 19.5 µM.

With `CC[n+]1c(-c2ccccc2)c2cc(N)ccc2c2ccc(N)cc21`, the AC50 is 23.3 µM.

For the compound `CC(C)(C)C(=O)Cn1ncc(Br)c(Br)c1=O`, the AC50 was 17.7 µM.

On to `C=CCn1c(C)cc(C2=NNC(=NCC)SC2)c1C`, for which the AC50 was 17.6 µM.

On to `Cc1cc(C)c2c(N)c3cccc(C)c3nc2n1`, for which the AC50 was 27.9 µM.

Take `CC(=O)Nc1ccc(NC(=O)c2nc(S(=O)(=O)Cc3ccccc3)ncc2Cl)cc1`: the AC50 is 5.12 µM.

Regarding `O=[N+]([O-])c1ccc(/C=N/n2cnc3ccccc32)s1`, the AC50 is 8.99 µM.

Regarding `CCN(Cc1ccccc1)c1ccc(/C=N/N=C(N)N)cc1`, the half-maximal activity concentration (AC50) was 24.4 µM.

Take `O=C(Nc1ccc2oc(-c3cccnc3)nc2c1)c1ccc([N+](=O)[O-])o1`: the half-maximal activity concentration (AC50) was 25.9 µM.

`COc1ccc(C)c2sc(N(CCN(C)C)C(=O)/C=C/c3cccs3)nc12`: the concentration at half-maximal activity (AC50) is 25.1 µM.

Regarding `O=C(CCl)N(c1ccccc1)C1CCCCC1`, the AC50 was 20.1 µM.

Turning to `O=C(/C=C/c1ccc(Cl)cc1)c1ccc([N+](=O)[O-])o1`, the concentration at half-maximal activity (AC50) was 24.5 µM.

Regarding `Cc1ccccc1OCC(=O)N/N=C/c1ccc([N+](=O)[O-])o1`, the AC50 was 26.3 µM.

Regarding `CC(C)=NOc1cc(NC(=O)CCl)cc([N+](=O)[O-])c1`, the AC50 is 5.64 µM.

Take `CCOC(=O)c1nnn(-c2ccc([N+](=O)[O-])cc2[N+](=O)[O-])c1C`: the AC50 was 16 µM.

As to `O=C(Cn1ncc(Cl)c(Cl)c1=O)N1CCc2ccccc21`, the AC50 is 5.98 µM.

As for `COc1ccc(-n2c(C)cc(C(=O)CCl)c2C)cc1`, the AC50 was 19.3 µM.

On to `O=C(N/N=C/c1ccc([N+](=O)[O-])s1)C(O)c1ccccc1` (stereo not drawn), for which the concentration at half-maximal activity (AC50) is 22.7 µM.

Regarding `CC(C)C(CCNC1CCN(C)CC1)c1ccc(Cl)cc1` (stereo not drawn), the half-maximal activity concentration (AC50) was 24.3 µM.

Turning to `CS(=O)(=O)c1ccc(S(=O)CC(=O)OCc2ccccc2)c([N+](=O)[O-])c1` (stereo not drawn), the concentration at half-maximal activity (AC50) is 20 µM.

`O=C1CN(C(=O)Cn2ncc(Cl)c(Cl)c2=O)c2ccccc2N1`: the half-maximal activity concentration (AC50) is 15.4 µM.

Turning to `N#CCc1ccc(NC(=O)/C=C/c2ccc([N+](=O)[O-])o2)cc1`, the AC50 was 10.4 µM.

`Cc1cc(Br)ccc1NC(=O)CNC(=O)Cn1ncc(Cl)c(Cl)c1=O`: the half-maximal activity concentration (AC50) was 5.54 µM.

For `COc1cc(NC(=O)COc2ccccc2[N+](=O)[O-])ccc1NC(=O)c1cccs1`, the AC50 is 26.7 µM.

Take `Oc1ccc(CNc2ccccc2F)c2cccnc12`: the AC50 is 28.2 µM.

`Cc1cc(NC(=O)c2ccc([N+](=O)[O-])o2)ccc1NC(=O)c1ccco1`: the AC50 was 12.5 µM.

With `S=C=Nc1cccc(C2(N3CCCCC3)CCCCC2)c1`, the AC50 is 26 µM.

For the compound `O=C(CCl)N1N=C(c2ccco2)CC1c1cccs1` (stereo not drawn), the concentration at half-maximal activity (AC50) is 23 µM.

On to `Cn1cc([N+](=O)[O-])c(C(=O)Nc2nc(-c3ccc(Cl)cc3)cs2)n1`, for which the half-maximal activity concentration (AC50) was 26.5 µM.

As for `COc1ccc(C(=O)/C=C/C(=O)N(CC(=O)NC2CCCCC2)Cc2ccc(F)cc2)c(O)c1`, the AC50 is 7.85 µM.

As to `COc1ccc(C(CCNC(C)c2ccccc2)c2ccc(F)cc2)cc1` (stereo not drawn), the AC50 was 16.7 µM.

For `CCOC(=O)CSC1=NC(=O)/C(=C\c2ccc(Cl)cc2)S1`, the concentration at half-maximal activity (AC50) was 16.2 µM.

For `COc1ccc(S(=O)(=O)N2CCCCC2)cc1NC(=O)c1ccc([N+](=O)[O-])o1`, the half-maximal activity concentration (AC50) is 14.3 µM.

For `CCC(C)(C)c1ccc(OCCCC[n+]2ccccc2)c(C(C)(C)CC)c1`, the AC50 is 10.8 µM.

As to `Cc1ccc(Oc2c(C(N)=O)cc([N+](=O)[O-])cc2[N+](=O)[O-])cc1`, the concentration at half-maximal activity (AC50) is 25.9 µM.

With `Cc1cccc(NC(=O)CNC(=O)Cn2ncc(Cl)c(Cl)c2=O)c1C`, the AC50 was 14.1 µM.

As to `C/C(=N/NC(=O)C(O)(c1ccccc1)c1ccccc1)c1ccc([N+](=O)[O-])o1`, the AC50 is 34.1 µM.

Take `COc1ccc(-c2cc(-c3ccccc3)c(C#N)c(S(C)=O)n2)cc1` (stereo not drawn): the AC50 is 23.8 µM.

In the case of `O=C(COc1ccccc1)N/N=C/c1ccc([N+](=O)[O-])o1`, the concentration at half-maximal activity (AC50) was 18.6 µM.

Take `O=C(Cc1ccc2c(c1)OCO2)NN=Cc1ccc([N+](=O)[O-])o1`: the AC50 is 19.1 µM.

As for `CN(C)S(=O)(=O)c1ccc(-c2csc(N/N=C/c3ccc(O)cc3)n2)cc1`, the AC50 was 21.2 µM.

Regarding `Oc1c(CN2CCCCC2)cc(COCc2ccccc2)c2cccnc12`, the half-maximal activity concentration (AC50) is 10.4 µM.

As to `COC1=C(Nc2ccccc2)C(=O)c2ccccc2C1=O`, the concentration at half-maximal activity (AC50) was 22 µM.

On to `COc1cc(NC(=O)c2ccc([N+](=O)[O-])o2)ccc1NC(=O)c1cccs1`, for which the concentration at half-maximal activity (AC50) is 13.1 µM.

`N#CC(C#N)=C1C=CC=CN1/C(=C\c1ccco1)C(=O)c1ccc(Cl)cc1`: the AC50 is 27.3 µM.

For `N=c1n(CC(=O)c2ccc(Br)s2)c2ccccc2n1Cc1ccccc1`, the concentration at half-maximal activity (AC50) was 24.7 µM.

Consider `CCOC(=O)c1c(C)oc2c1C(=O)c1ccccc1C2=O`, for which the half-maximal activity concentration (AC50) is 7.25 µM.

Turning to `CC1CN(C(=O)CCC(=O)NCCCN2CCC(Cc3ccccc3)CC2)c2cc(Cl)ccc2O1` (stereo not drawn), the concentration at half-maximal activity (AC50) is 19.4 µM.

Turning to `CS(=O)(=O)c1ncc(Cl)c(C(=O)Nc2ccc3ccccc3c2)n1`, the AC50 is 15.2 µM.

`O=C(Nc1ccc(N2CCN(C(=O)c3ccccc3)CC2)cc1)c1ccc([N+](=O)[O-])o1`: the concentration at half-maximal activity (AC50) was 9.02 µM.

`O=C(N/N=C/c1ccc([N+](=O)[O-])o1)c1ccc(O)cc1`: the concentration at half-maximal activity (AC50) was 10.9 µM.

As to `COc1ccc2[nH]cc(C(=O)CCl)c2c1`, the AC50 was 15.1 µM.

`CC(=O)OCCNc1cc(Sc2nc3ccccc3[nH]2)c2nonc2c1[N+](=O)[O-]`: the concentration at half-maximal activity (AC50) is 13.6 µM.

In the case of `COc1cc(/C=N/NC(N)=O)c(Br)cc1OCC(=O)Nc1ccccc1C`, the AC50 is 29.4 µM.

`Cc1ccc(NC(=O)c2cc(N3C(=O)C=CC3=O)ccc2N2CCOCC2)cc1`: the concentration at half-maximal activity (AC50) was 10.1 µM.

In the case of `C=Cc1ncc(OC)c2c1[nH]c1ccccc12`, the half-maximal activity concentration (AC50) is 31.5 µM.

`c1ccc2cc3c(NCCN4CCOCC4)ccnc3cc2c1`: the half-maximal activity concentration (AC50) is 4.49 µM.

On to `CS(=O)(=O)c1ncc(Cl)c(C(=O)Nc2ccc(N3CCOCC3)cc2)n1`, for which the AC50 was 10.7 µM.

For the compound `Cc1nc2ccccc2n1/N=C/c1ccc([N+](=O)[O-])s1`, the AC50 is 26.4 µM.

For `N#CC(C#N)=C1C=CC=CN1/C(=C\c1ccco1)C(=O)c1ccc(Br)cc1`, the AC50 is 24.6 µM.

`COc1ccc(-c2cc3c(nn2)-c2ccccc2C3=O)cc1`: the half-maximal activity concentration (AC50) is 14.5 µM.

`O=c1c(Cl)c(Cl)cnn1-c1ccccc1`: the concentration at half-maximal activity (AC50) is 5.84 µM.

For `Cc1ccccc1-c1nc(-c2ccccn2)no1`, the concentration at half-maximal activity (AC50) is 22.2 µM.

Consider `O=c1c(Cl)c(Cl)cnn1Cc1ccc(F)cc1`, for which the concentration at half-maximal activity (AC50) is 31.6 µM.

For the compound `CC1(C(=O)N/N=C/c2ccc([N+](=O)[O-])o2)CC1(Br)Br` (stereo not drawn), the half-maximal activity concentration (AC50) is 34 µM.

Turning to `Cc1ccc(S(=O)(=O)/N=C2\C(=O)c3ccccc3C([O-])=C2n2cc[n+](CCC(C)C)c2)cc1`, the AC50 is 11.4 µM.

`c1ccc(CSc2nnc(-c3ccco3)n2Cc2ccco2)cc1`: the AC50 was 26.4 µM.

With `Cc1ccc2sc(N(CCCN(C)C)C(=O)c3ccc(S(=O)(=O)N(C)C4CCCCC4)cc3)nc2c1C`, the concentration at half-maximal activity (AC50) is 18.1 µM.

`CCN1CCN(CCCNC(=O)c2ccc3c(c2)NC(=O)/C(=C\c2cccc(C)c2)S3)CC1`: the AC50 was 28.1 µM.

Regarding `CCCC(=O)N1CCN(c2ccc(NC(=O)c3ccc([N+](=O)[O-])o3)cc2Cl)CC1`, the AC50 was 14.4 µM.

`Cc1c(NC(=O)c2ccc([N+](=O)[O-])o2)cccc1-c1nc2ncccc2o1`: the AC50 was 15.4 µM.

`COc1ccccc1NC(=O)c1nc(S(=O)(=O)Cc2ccccc2)ncc1Cl`: the AC50 is 6.97 µM.
